Tested on: human CD8+ T-cells
Assay: Cytokine expression after PMA and Ionomycin restimulation of human CBMC-derived T-cells
Format: cell-based
Conditions: day 11 cells, inhibitors washed out, PMA and ionomycin 4 hours
Procedure: Methods: Mononuclear Cells were isolated from fresh umbilical cord blood on a Percoll Gradient (CBMCs). 10^4 CBMC's were seeded per well in a round bottom 96-well plate in RPMI with 10% human serum, and activated with (magnetic) αCD3/CD28 at a 1:2 cell:bead ratio and 300 U/ml rhIL-2, in the presence of 5 μM AG221 or DMSO, or 1 μM MK2206 (AKT inhibitor). After 11 days of culture, CD62L expression was analyzed by flow cytometry on a fraction of the cells (FIG. 15A). The other cells were washed 2 times and placed in a magnet to remove the inhibitors and the αCD3/CD28 beads. The cells were then rested for 4 hours before restimulating them for 4 hours with 1 ng/ml Phorbol 12-Myristate 13-Acetate (PMA, a PKC activator) and 50 μg/ml Ionomycin (a Ca^2+ ionophore, activating NF-KB and NFAT) in the presence of 50 μ/ml golgi inhibitor (Brefeldin A, BFA), allowing for the measurement of intracellular accumulation of different cytokines by flow cytometry.

For `CC(C)(O)CNc1nc(Nc2ccnc(C(F)(F)F)c2)nc(-c2cccc(C(F)(F)F)n2)n1` [AG221, 2-methyl-1-[[4-[6-(trifluoromethyl)pyridin-2-yl]-6-[[2-(trifluoromethyl)pyridin-4-yl]amino]-1,3,5-triazin-2-yl]amino]propan-2-ol], the “TNF expression upon restimulation” value was “unaffected”, the “expression of effector cytokine IFNγ upon restimulation” value was “significant upregulation” and the “production of IL-2 upon restimulation” value was “unaltered”.

Source: patent US20220325242A1, “IDH2 INHIBITION FOR PRODUCING T-CELLS AND B-CELLS WITH A MEMORY PHENOTYPE” (Universite de Lausanne, priority 2019, published 2022)
